Read-outs that look alike come from different tables or passages of the source.
Legend:
Pseudomonas aeruginosa [1] = assay: MIC microdilution assay; type: cell-based; conditions: P. aeruginosa; agent alone
Pseudomonas aeruginosa [2] = assay: Combination determination (FIC, MIC in combination); type: cell-based; conditions: P. aeruginosa
Experimental: The alkaloids were tested in pair-wise combinations (fractional inhibitory concentrations, FIC) against all the bacteria to determine whether interactions were antagonistic (FIC>1), additive (0.5<FIC<1), or synergistic (FIC<0.5). The FIC was calculated by the following: (MIC Acombination/MIC Aalone)+(MIC Bcombination/MIC Balone). Where A represents compound 1 and B represents compound 2. […] In the case of A. actinomycetemcomitans and P. aeruginosa, CHX was used at 0.78 to 50 μg ml^−1. Berberine (B-CG and B-S) was used at concentrations 0.9 to 250 μg ml^−1. The antibacterial efficacy of berberine (1.95 to 500 μg ml^−1) was tested in combination against P. aeruginosa with CHX (0.78 to 50 μg ml^−1) (Sigma Chemicals) and the polymyxin antibiotic Col (0.04 to 25 μg ml^−1) (Sigma Chemicals). The plates were incubated for 24 hours.

Streptococcus mutans = assay: MIC microdilution assay; type: cell-based; conditions: for MIC: Streptococcus mutans
[3] = system: Actinobacillus actinomycetemcomitans; assay: MIC microdilution assay; type: cell-based; conditions: for MIC: Aggregatibacter actinomycetemcomitans
Porphymonas gingivalis = assay: MIC microdilution assay; type: cell-based; conditions: for MIC: Porphyromonas gingivalis
Streptococcus gordonii = assay: MIC microdilution assay; type: cell-based
Fusobacterium nucleatum = assay: MIC microdilution assay; type: cell-based
test bacteria = assay: MIC microdilution assay, statements on all test bacteria; type: cell-based; conditions: read-out: Concentration without growth inhibition of the test bacteria (MIC bound)
[4] = system: S. aureus, E. coli, P. aeruginosa, and S. sanguis; conditions: isolated from H. canadensis; cited from earlier work
[5] = read-out: MIC of Goldenseal Alkaloids Against Selected Oral Pathogens

Compound: colistin sulfate
- MIC of the antimicrobial agents alone (Pseudomonas aeruginosa [1]): 3.13 µg/mL
- Interaction when combined with berberine (Pseudomonas aeruginosa [2]): no clear additive or synergistic effect
- MIC of the antimicrobial agents in combination (Pseudomonas aeruginosa [2]; berberine combined with CHX or Col, MIC of the named agent in the combination): 1.56 µg/mL

Compound: COc1ccc2cc3[n+](cc2c1O)CCc1cc2c(cc1-3)OCO2 [berberrubine]
- Concentration without growth inhibition (MIC bound) (Streptococcus mutans; S. mutans, growth hindered, but not inhibited at lower concentrations): greater than 300 μml^−1
- MIC (Streptococcus mutans; S. mutans, growth limited but not inhibited at lower concentrations, text b118, read-out: Concentration without growth inhibition (MIC bound)): > 300 µg/mL
- Concentration without antimicrobial activity (MIC bound) ([3]; A. actinomycetecomitans): ≥ 300 μml^−1
- MIC ([3]; A. actinomycetemcomitans, read-out: Concentration without growth inhibition (MIC bound)): > 300 µg/mL
- MIC (Porphymonas gingivalis; P. gingivalis, comparable to berberine, read-out: MIC): 17 µg/mL

Compound: COc1cc2c(cc1O)[C@@H]1Cc3ccc(OC)c(OC)c3CN1CC2 [Isocorypalamine, isocorypalmine]
- MIC of Goldenseal Alkaloids Against Selected Oral Pathogens (Streptococcus mutans; Sm, S. mutans): >125 µg/mL
- MIC of Goldenseal Alkaloids Against Selected Oral Pathogens (Streptococcus gordonii; Sg, S. gordonii): >125 µg/mL
- MIC of Goldenseal Alkaloids Against Selected Oral Pathogens ([3]; Aa, A. actinomycetemcomitans): >125 µg/mL
- MIC of Goldenseal Alkaloids Against Selected Oral Pathogens (Fusobacterium nucleatum; Fn, F. nucleatum): >125 µg/mL
- MIC of Goldenseal Alkaloids Against Selected Oral Pathogens (Porphymonas gingivalis; Pg, P. gingivalis): >125 µg/mL

Compound: COc1ccc2c(c1OC)CN1CCc3cc4c(cc3[C@@H]1C2)OCO4 [Canadine, canadine]
- MIC (Streptococcus mutans; [5]): > 500 µg/mL
- MIC (Streptococcus gordonii; Streptococcus gordonii, read-out: MIC of Goldenseal Alkaloids Against Selected Oral Pathogens): > 500 µg/mL
- MIC [3, 5]: > 500 µg/mL
- MIC (Fusobacterium nucleatum; Fusobacterium nucleatum, read-out: MIC of Goldenseal Alkaloids Against Selected Oral Pathogens): > 500 µg/mL
- MIC (Porphymonas gingivalis; [5]): > 500 µg/mL
- MIC (test bacteria): > 250 µg/mL
- Antibacterial activity [4]: antimicrobial at comparable concentrations to berberine
